One experiment addresses T1, NgaDssm (metagenome, UniProt Z9PL66MBS5).
T1 construct: signal peptide removed; pET-47b(+), E. coli BL21 Star (DE3); His tag cut with HRV3C; monomer
T1 sequence (Z9PL66MBS5 4-542): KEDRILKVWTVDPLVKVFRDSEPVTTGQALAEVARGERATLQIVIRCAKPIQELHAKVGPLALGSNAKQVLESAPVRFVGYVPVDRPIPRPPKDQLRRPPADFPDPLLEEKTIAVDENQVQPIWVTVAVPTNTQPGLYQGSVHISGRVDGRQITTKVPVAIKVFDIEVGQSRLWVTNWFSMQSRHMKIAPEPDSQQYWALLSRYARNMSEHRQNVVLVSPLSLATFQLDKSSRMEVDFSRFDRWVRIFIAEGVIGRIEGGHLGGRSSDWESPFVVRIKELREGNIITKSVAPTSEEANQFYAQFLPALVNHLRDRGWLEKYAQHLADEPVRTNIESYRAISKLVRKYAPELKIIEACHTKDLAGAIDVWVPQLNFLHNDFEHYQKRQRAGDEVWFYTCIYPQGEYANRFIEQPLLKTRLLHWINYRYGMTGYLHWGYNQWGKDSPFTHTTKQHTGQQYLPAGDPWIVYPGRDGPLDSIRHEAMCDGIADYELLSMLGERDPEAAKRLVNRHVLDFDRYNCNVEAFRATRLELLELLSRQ
The experiment in a line: crystal structure of complex. The experiment is classed as binding. The following applies: 5 mM ligand in crystallization; active site, oxazolinium intermediate analogue.

A further experiment has as its target T2, NgaP2 (Paenibacillus sp. TS12, UniProt A0AAT8XUB3).
T2 construct: cloned from genomic DNA, pET-47b(+), E. coli BL21 Star (DE3); His tag cut with HRV3C; monomer; not the GH123 NgaP of the same strain
T2 sequence (A0AAT8XUB3 4-581): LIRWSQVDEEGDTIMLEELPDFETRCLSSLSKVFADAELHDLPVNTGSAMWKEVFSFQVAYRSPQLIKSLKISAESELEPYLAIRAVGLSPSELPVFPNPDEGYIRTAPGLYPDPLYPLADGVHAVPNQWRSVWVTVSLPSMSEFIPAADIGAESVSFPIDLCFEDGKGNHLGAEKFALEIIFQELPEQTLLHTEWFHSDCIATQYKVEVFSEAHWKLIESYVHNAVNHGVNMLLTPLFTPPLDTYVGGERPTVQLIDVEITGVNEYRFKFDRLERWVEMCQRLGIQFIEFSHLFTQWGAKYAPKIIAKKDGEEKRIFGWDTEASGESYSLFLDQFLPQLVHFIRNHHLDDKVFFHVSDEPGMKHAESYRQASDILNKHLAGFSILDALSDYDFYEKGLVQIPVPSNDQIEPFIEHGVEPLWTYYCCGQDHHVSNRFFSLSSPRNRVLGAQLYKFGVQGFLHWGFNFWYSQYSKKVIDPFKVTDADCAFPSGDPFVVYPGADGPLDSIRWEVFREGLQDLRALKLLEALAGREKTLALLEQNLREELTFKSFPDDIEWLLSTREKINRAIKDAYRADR
The experiment is described as follows: crystal structure of complex. The following applies: 5 mM ligand in crystallization; active site, oxazolinium intermediate analogue. The experiment is classed as binding.

SMILES strings stand for the structures.

In the case of `CC1=N[C@@H]2[C@@H](O)[C@@H](O)[C@@H](CO)O[C@@H]2S1` [GalNAc-thiazoline], the “crystal structure of complex” value on NgaDssm was “the structures of the NgaAt, NgaDssm, and NgaP2 complexes with GalNAc-thiazoline were successfully characterized”; at NgaP2, “the structures of the NgaAt, NgaDssm, and NgaP2 complexes with GalNAc-thiazoline were successfully characterized”.

For the origin of these results see article PMC11087588, “Genetic and functional diversity of β-N-acetylgalactosamine-targeting glycosidases expanded by deep-sea metagenome analysis” (Nature Communications, 2024).
